The values that follow come from ChEMBL document CHEMBL4680301, “Development of a novel acetyl glucose-modified gefitinib derivative to enhance the radiosensitizing effect” (Bioorg Med Chem, 2021).

Structures are written as SMILES. pIC50: −log10 of the molar value. Activity calls are given as the source filed them. The calls are words filed in the database; no cut-off is given here.

The nature of data set [1]: Drug metabolism in human A431 cells assessed as 4-((4-((3-Chloro-4-fluorophenyl)amino)-6-(3-morpholinopropoxy)quinazolin-7-yl)oxy)butan-1-ol metabolite formation at 3 uM measured after 24 hrs by HPLC analysis. It counts as ADME, cell-based. Conditions: a-431, 24 h.
Data set [2] concerns A-431. In words: Radio-sensitinzing effect in human A431 cells assessed as reduction in surviving fraction incubated at 1 uM for 24 hrs with X-ray followed by measured after 7 days by Giemsa staining relative to control. It counts as functional. Conditions: time 8 day.
For data set [3], the system named is A-431. In words: Cytotoxicity against human A431 cells measured after 24 hrs by WST-1 assay. As to conditions: A-431, 24 h. It counts as functional, cell-based.
The test system of data set [4] is HepG2. In words: Inhibition of GLUT in human HepG2 cells assessed as inhibition of 2-NBDG uptake at 10 uM incubated for 20 mins by fluorescence microplate reader. The data set is classed as cell-based.
The nature of data set [5]: Drug metabolism in human A431 cells assessed as 2-((4-((3-Chloro-4-fluorophenyl)amino)-6-(3-morpholinopropoxy)quinazolin-7-yl)oxy)ethan-1-ol metabolite formation at 3 uM measured after 24 hrs by HPLC analysis. It counts as ADME, cell-based. As to conditions: a-431, 24 h.
The subject of data set [6] is HepG2. In words: Inhibition of GLUT in human HepG2 cells assessed as inhibition of 2-NBDG uptake incubated for 20 mins by fluorescence microplate reader. It counts as cell-based. Conditions: dose 10-30 µM.
Data set [7] in a line: Drug metabolism in human A431 cells assessed as 3-((4-((3-Chloro-4-fluorophenyl)amino)-6-(3-morpholinopropoxy)quinazolin-7-yl)oxy)propan-1-ol metabolite formation at 3 uM measured after 24 hrs by HPLC analysis. The data set is classed as ADME, cell-based. As to conditions: a-431, 24 h.

As for `CC(=O)OC[C@H]1OC(OCCCCOc2cc3ncnc(Nc4ccc(F)c(Cl)c4)c3cc2OCCCN2CCOCC2)[C@H](OC(C)=O)[C@@H](OC(C)=O)[C@@H]1OC(C)=O` (stereo partly specified), the Drug metabolism result in data set [1] is reported as “Metabolite_Detected”. The “fold change (FC)” value in the data set with A-431 [2] is 0.202. In the data set with A-431 [3], this compound gave a pIC50 of 4.40.
On to `C=C1[C@@H](C)[C@H]2[C@H](Cc3ccccc3)NC(=O)[C@]23OC(=O)/C=C/[C@H](O)CCC[C@@H](C)C/C=C/[C@H]3[C@@H]1O`, for which the inhibition result with HepG2 [4] was “Active”.
For `CC(=O)OC[C@H]1OC(OCCOc2cc3ncnc(Nc4ccc(F)c(Cl)c4)c3cc2OCCCN2CCOCC2)[C@H](OC(C)=O)[C@@H](OC(C)=O)[C@@H]1OC(C)=O` (stereo partly specified), the Drug metabolism result in data set [5] is recorded as “Metabolite_Detected”. Further, the “fold change (FC)” value in the data set on A-431 [2] worked out at 0.175. Moreover, the inhibition result in the data set on HepG2 [6] was “Dose-dependent effect”. This compound also had a pIC50 in the data set on A-431 [3] of 4.46.
With `CC(=O)OC[C@H]1OC(OCCCOc2cc3ncnc(Nc4ccc(F)c(Cl)c4)c3cc2OCCCN2CCOCC2)[C@H](OC(C)=O)[C@@H](OC(C)=O)[C@@H]1OC(C)=O` (stereo partly specified), in the data set with A-431 [2], the “fold change (FC)” value is 0.216. Also, in data set [7], the Drug metabolism result is given as “Metabolite_Detected”. Further, the pIC50 in the data set with A-431 [3] is 4.43.
